Experimental data from patent US20240287138A1, “CYCLIC PEPTIDES FOR INHIBITING TNF RECEPTOR 1 ACTIVITY” (Merck Sharp & Dohme LLC, priority 2023, published 2024).
Like-named read-outs stand apart in the source and are kept apart here. Numbered stars: 1 amine (or outer) side, 2 acyl side, 3 side chain; on linkers, the order of the positions; unused ones are H or OH. Bridge positions count the residues as written; N and C are the ends. Square brackets hold non-standard residues; d marks the D form. Peptide text beside a SMILES is read from it. * marks the point of attachment. Trp(βS-Me,7-OMe) = COc1cccc2c([C@H](C)[C@H](N)C(=O)O)c[nH]c12; Trp(1-CH2COOH) = N[C@@H](Cc1cn(CC(=O)O)c2ccccc12)C(=O)O; Morpholine(3S-CO,6,6-Me2) = CC1(C)CN[C@H](C(=O)O)CO1; Phe(4-SO2NH2) = N[C@@H](Cc1ccc(S(N)(=O)=O)cc1)C(=O)O; Trp(7-CN) = N#Cc1cccc2c(C[C@H](N)C(=O)O)c[nH]c12; Trp(7-Cl) = N[C@@H](Cc1c[nH]c2c(Cl)cccc12)C(=O)O; Phe(3-CONH2) = NC(=O)c1cccc(C[C@H](N)C(=O)O)c1; Phe(4-CONH2) = NC(=O)c1ccc(C[C@H](N)C(=O)O)cc1; Phe(4-COOH) = N[C@@H](Cc1ccc(C(=O)O)cc1)C(=O)O; Trp(7-aza) = N[C@@H](Cc1c[nH]c2ncccc12)C(=O)O; X9 = CN(C)[C@@H]1C[C@H](C(=O)[*:2])N([*:1])C1; dPro(4S-NH2) = N[C@@H]1CN[C@@H](C(=O)O)C1; Pip(5R-OH) = O=C(O)[C@@H]1CC[C@@H](O)CN1; X1 = O=C([C@@H]1CC[C@H](N[*:1])C1)[*:2]; Pip(4-aza) = O=C(O)[C@@H]1CNCCN1; 4Pal = N[C@@H](Cc1ccncc1)C(=O)O; NMeE = CN[C@@H](CCC(=O)O)C(=O)O; dHyp = O=C(O)[C@H]1C[C@H](O)CN1; Gly(N-CH2CH2OH) = O=C(O)CNCCO; Ahp(2) = CCCCC[C@H](N)C(=O)O; NEtAla = CCN[C@@H](C)C(=O)O; Pip = O=C(O)[C@@H]1CCCCN1; αMeS = C[C@](N)(CO)C(=O)O; Carboxymethyl = O=C(O)C*; Nle = CCCC[C@H](N)C(=O)O; Sar = CNCC(=O)O

Assays:
[1] = molecular target: T1, TNFα-induced NF-κB signal transduction pathway (TNFR1 signaling) in THP-1 cells (Homo sapiens, UniProt P19438); assay: THP-1 Lucia NF-κB reporter cell assay, inhibition of TNFα-induced NF-κB signaling; format: cell-based; conditions: THP-1 NF-κB Lucia reporter cells, 10 ng/mL TNFα, 16-18 h, secreted luciferase; read-out: THP-1 IC50
T1 sequence (P19438 30-455): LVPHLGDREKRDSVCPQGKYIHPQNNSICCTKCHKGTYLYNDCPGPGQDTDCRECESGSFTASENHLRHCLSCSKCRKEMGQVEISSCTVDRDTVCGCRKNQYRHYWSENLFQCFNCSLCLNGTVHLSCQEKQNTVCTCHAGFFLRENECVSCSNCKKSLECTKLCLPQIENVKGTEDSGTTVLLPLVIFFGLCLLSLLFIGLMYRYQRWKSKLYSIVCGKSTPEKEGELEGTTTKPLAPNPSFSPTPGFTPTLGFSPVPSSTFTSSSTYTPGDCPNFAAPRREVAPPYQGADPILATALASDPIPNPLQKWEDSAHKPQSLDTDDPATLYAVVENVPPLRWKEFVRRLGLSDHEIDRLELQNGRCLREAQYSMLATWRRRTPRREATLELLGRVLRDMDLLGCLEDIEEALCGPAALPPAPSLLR
Outline: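 Read-out: secreted Lucia luciferase luminescence (QUANTI-Luc) from supernatant after 16-18 h, 37 °C, 10 ng/mL rhTNFα. Peptide pretreatment 1 h at 37 °C; 20,000 cells/well, selection antibiotics omitted. IC50 via 4-parameter logistic model against min/max controls.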

[2] = molecular target: T2, human soluble TNFR1 (sTNFR1) (Homo sapiens, UniProt P19438); assay: Human sTNFR1-peptide displacement assay (LanthaScreen Eu TR-FRET binding assay)
T2 construct: made in house; host or cells: Sf21 (baculovirus)
T2 sequence (P19438 with tags, fused parts or gaps): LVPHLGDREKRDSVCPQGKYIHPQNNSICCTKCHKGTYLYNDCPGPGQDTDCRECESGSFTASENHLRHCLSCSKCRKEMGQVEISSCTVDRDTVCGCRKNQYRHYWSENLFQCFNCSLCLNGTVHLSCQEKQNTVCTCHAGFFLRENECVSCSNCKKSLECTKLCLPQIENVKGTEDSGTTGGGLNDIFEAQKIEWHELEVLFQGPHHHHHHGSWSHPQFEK
Outline: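 Readout is the 665/615 nm TR-FRET ratio (Eu anti-His donor, streptavidin-Alexa647 acceptor), normalized to DMSO and saturating displacer, fit by Morrison-based five-parameter logistic for Kd^app. His-tagged sTNFR1 (1-211) prebound to 100 nM biotinylated peptide SEQ ID NO.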

[3] = displacement of biotinylated peptide SEQ ID NO. 1 from sTNFR1, 20 point titration, 5-parameter fit based on Morrison equation (tight binding), read-out: TR-FRET Kd^app

SMILES	IC50 [1] [nM]	Kd [2, 3] [nM]	IC50 ([2]; displacement of biotinylated peptide SEQ ID NO. 1 from sTNFR1, weaker binders, 10 pts titration, 4-parameter logistic model, read-out: TR-FRET, IC50) [nM]	Kd [2] [nM]
CCCC[C@@H]1NC(=O)[C@@H]2CC[C@@H](C2)NC(=O)[C@H]([C@@H](C)c2c[nH]c3c(OC)cccc23)NC(=O)CN(C)C(=O)[C@H](Cc2ccc(C(N)=O)cc2)NC(=O)[C@H](Cc2ccc(C(N)=O)cc2)NC(=O)[C@](C)(CO)NC(=O)[C@H](Cc2c[nH]c3c(C#N)cccc23)NC(=O)[C@H](Cc2ccc(C(=O)O)cc2)NC(=O)[C@H](CC(N)=O)NC(=O)[C@H]2C[C@H](O)CN2C(=O)[C@H](Cc2c[nH]c3ncccc23)NC(=O)[C@@H]2CC[C@@H](O)CN2C(=O)[C@H](Cc2ccncc2)NC1=O [SEQ ID NO. 254] (cyclo([4Pal][Pip(5R-OH)][Trp(7-aza)][dHyp]N[Phe(4-COOH)][Trp(7-CN)][αMeS][Phe(4-CONH2)][Phe(4-CONH2)][Sar][Trp(βS-Me,7-OMe)][X1][Nle]))	0.4	0.06	–	–
CCCC[C@@H]1NC(=O)CSC[C@@H](C(N)=O)NC(=O)[C@H]([C@@H](C)c2c[nH]c3c(OC)cccc23)NC(=O)CN(C)C(=O)[C@H](Cc2ccc(O)cc2)NC(=O)[C@H](Cc2ccc(C(=O)O)cc2)NC(=O)[C@](C)(CO)NC(=O)[C@H](Cc2c[nH]c3c(Cl)cccc23)NC(=O)[C@H](Cc2ccncc2)NC(=O)[C@H](CC(N)=O)NC(=O)[C@H](C)N(CC)C(=O)[C@H](Cc2c[nH]c3ccccc23)NC(=O)[C@@H]2COC(C)(C)CN2C(=O)[C@H](Cc2ccncc2)NC1=O [SEQ ID NO. 183] ({CH2CO}-[Nle][4Pal][Morpholine(3S-CO,6,6-Me2)]W[NEtAla]N[4Pal][Trp(7-Cl)][αMeS][Phe(4-COOH)]Y[Sar][Trp(βS-Me,7-OMe)]C-NH2; thioether N-14)	2.8	0.17	0.5	–
CCCC[C@@H]1NC(=O)[C@@H]2CC[C@@H](C2)NC(=O)[C@H]([C@@H](C)c2c[nH]c3c(OC)cccc23)NC(=O)CN(C)C(=O)[C@H](Cc2ccc(C(N)=O)cc2)NC(=O)[C@H](Cc2ccc(C(N)=O)cc2)NC(=O)[C@](C)(CO)NC(=O)[C@H](Cc2c[nH]c3c(Cl)cccc23)NC(=O)[C@H](Cc2ccc(C(=O)O)cc2)NC(=O)[C@H](CC(N)=O)NC(=O)[C@H]2C[C@H](O)CN2C(=O)[C@H](Cc2c[nH]c3ccccc23)NC(=O)[C@@H]2CC[C@@H](O)CN2C(=O)[C@H](Cc2ccncc2)NC1=O [SEQ ID NO. 196] (cyclo([4Pal][Pip(5R-OH)]W[dHyp]N[Phe(4-COOH)][Trp(7-Cl)][αMeS][Phe(4-CONH2)][Phe(4-CONH2)][Sar][Trp(βS-Me,7-OMe)][X1][Nle]))	0.6	0.09	–	–
CCCC[C@@H]1NC(=O)[C@@H]2CC[C@@H](C2)NC(=O)[C@H]([C@@H](C)c2c[nH]c3c(OC)cccc23)NC(=O)CN(C)C(=O)[C@H](Cc2ccc(O)cc2)NC(=O)[C@H](Cc2ccc(C(=O)O)cc2)NC(=O)[C@](C)(CO)NC(=O)[C@H](Cc2c[nH]c3c(Cl)cccc23)NC(=O)[C@H](Cc2ccncc2)NC(=O)[C@H](CC(N)=O)NC(=O)CN(CCO)C(=O)[C@H](Cc2c[nH]c3ccccc23)NC(=O)[C@@H]2CNCCN2C(=O)[C@H](Cc2ccncc2)NC1=O [SEQ ID NO. 72] (cyclo([4Pal][Trp(7-Cl)][αMeS][Phe(4-COOH)]Y[Sar][Trp(βS-Me,7-OMe)][X1][Nle][4Pal][Pip(4-aza)]W[Gly(N-CH2CH2OH)]N))	0.8	–	–	0.09
CCCC[C@@H]1NC(=O)[C@@H]2CC[C@@H](C2)NC(=O)[C@H]([C@@H](C)c2c[nH]c3c(OC)cccc23)NC(=O)CN(C)C(=O)[C@H](Cc2ccc(C(=O)O)cc2)NC(=O)[C@H](Cc2ccc(C(N)=O)cc2)NC(=O)[C@](C)(CO)NC(=O)[C@H](Cc2c[nH]c3c(Cl)cccc23)NC(=O)[C@H](Cc2ccncc2)NC(=O)[C@H](CC(N)=O)NC(=O)[C@H]2C[C@H](O)CN2C(=O)[C@H](Cc2c[nH]c3ccccc23)NC(=O)[C@@H]2CNCCN2C(=O)[C@H](Cc2ccncc2)NC1=O [SEQ ID NO. 83] (cyclo([4Pal][Trp(7-Cl)][αMeS][Phe(4-CONH2)][Phe(4-COOH)][Sar][Trp(βS-Me,7-OMe)][X1][Nle][4Pal][Pip(4-aza)]W[dHyp]N))	0.6	0.16	–	–
CCCC[C@@H]1NC(=O)[C@@H]2CC[C@@H](C2)NC(=O)[C@H]([C@@H](C)c2c[nH]c3c(OC)cccc23)NC(=O)CN(C)C(=O)[C@H](Cc2ccc(C(=O)O)cc2)NC(=O)[C@H](Cc2ccc(C(N)=O)cc2)NC(=O)[C@](C)(CO)NC(=O)[C@H](Cc2c[nH]c3c(Cl)cccc23)NC(=O)[C@H](Cc2ccncc2)NC(=O)[C@H](CC(N)=O)NC(=O)[C@H]2C[C@H](O)CN2C(=O)[C@H](Cc2c[nH]c3ccccc23)NC(=O)[C@@H]2CC[C@@H](O)CN2C(=O)[C@H](Cc2ccncc2)NC1=O [SEQ ID NO. 53] (cyclo([4Pal][Trp(7-Cl)][αMeS][Phe(4-CONH2)][Phe(4-COOH)][Sar][Trp(βS-Me,7-OMe)][X1][Nle][4Pal][Pip(5R-OH)]W[dHyp]N))	0.6	0.09	–	–
CCCC[C@@H]1NC(=O)[C@@H]2CC[C@@H](C2)NC(=O)[C@H]([C@@H](C)c2c[nH]c3c(OC)cccc23)NC(=O)CN(C)C(=O)[C@H](Cc2cccc(C(N)=O)c2)NC(=O)[C@H](Cc2ccc(C(=O)O)cc2)NC(=O)[C@](C)(CO)NC(=O)[C@H](Cc2c[nH]c3c(Cl)cccc23)NC(=O)[C@H](Cc2ccncc2)NC(=O)[C@H](CC(N)=O)NC(=O)[C@H](CCC(=O)O)N(C)C(=O)[C@H](Cc2c[nH]c3ccccc23)NC(=O)[C@@H]2CCCCN2C(=O)[C@H](Cc2ccncc2)NC1=O [SEQ ID NO. 221] (cyclo([4Pal][Pip]W[NMeE]N[4Pal][Trp(7-Cl)][αMeS][Phe(4-COOH)][Phe(3-CONH2)][Sar][Trp(βS-Me,7-OMe)][X1][Nle]))	1	0.31	–	–
CCCC[C@@H]1NC(=O)[C@@H]2CC[C@@H](C2)NC(=O)[C@H]([C@@H](C)c2c[nH]c3c(OC)cccc23)NC(=O)CN(C)C(=O)[C@H](Cc2ccc(OCC(=O)O)cc2)NC(=O)[C@H](Cc2ccc(S(N)(=O)=O)cc2)NC(=O)[C@](C)(CO)NC(=O)[C@H](Cc2c[nH]c3c(C#N)cccc23)NC(=O)[C@H](Cc2ccc(OCC(=O)O)cc2)NC(=O)[C@H](CC(N)=O)NC(=O)[C@H]2C[C@H](N)CN2C(=O)[C@H](Cc2cn(CC(=O)O)c3ccccc23)NC(=O)[C@@H]2CC[C@@H](O)CN2C(=O)[C@H](Cc2ccncc2)NC1=O [SEQ ID NO. 18] (cyclo([4Pal][Pip(5R-OH)][Trp(1-CH2COOH)][dPro(4S-NH2)]NY(Carboxymethyl)[Trp(7-CN)][αMeS][Phe(4-SO2NH2)]Y(Carboxymethyl)[Sar][Trp(βS-Me,7-OMe)][X1][Nle]))	0.6	0.08	–	–
CCCCC[C@@H]1NC(=O)[C@@H]2CC[C@@H](C2)NC(=O)[C@H]([C@@H](C)c2c[nH]c3c(OC)cccc23)NC(=O)CN(C)C(=O)[C@H](Cc2cccc(C(N)=O)c2)NC(=O)[C@H](Cc2ccc(C(N)=O)cc2)NC(=O)[C@](C)(CO)NC(=O)[C@H](Cc2c[nH]c3c(C#N)cccc23)NC(=O)[C@H](Cc2ccc(C(=O)O)cc2)NC(=O)[C@H](CC(N)=O)NC(=O)[C@H]2C[C@@H](N(C)C)CN2C(=O)[C@H](Cc2c[nH]c3ccccc23)NC(=O)[C@@H]2CC[C@@H](O)CN2C(=O)[C@H](Cc2ccncc2)NC1=O [SEQ ID NO. 84] (cyclo([4Pal][Pip(5R-OH)]W[X9]N[Phe(4-COOH)][Trp(7-CN)][αMeS][Phe(4-CONH2)][Phe(3-CONH2)][Sar][Trp(βS-Me,7-OMe)][X1][Ahp(2)]))	0.6	–	–	0.06
CCCC[C@@H]1NC(=O)[C@@H]2CC[C@@H](C2)NC(=O)[C@H]([C@@H](C)c2c[nH]c3c(OC)cccc23)NC(=O)CN(C)C(=O)[C@H](Cc2ccc(C(=O)O)cc2)NC(=O)[C@H](Cc2ccc(C(N)=O)cc2)NC(=O)[C@](C)(CO)NC(=O)[C@H](Cc2c[nH]c3c(C#N)cccc23)NC(=O)[C@H](Cc2ccc(C(=O)O)cc2)NC(=O)[C@H](CC(N)=O)NC(=O)[C@H]2C[C@H](N)CN2C(=O)[C@H](Cc2cn(CC(=O)O)c3ccccc23)NC(=O)[C@@H]2CC[C@@H](O)CN2C(=O)[C@H](Cc2ccncc2)NC1=O [SEQ ID NO. 104] (cyclo([4Pal][Pip(5R-OH)][Trp(1-CH2COOH)][dPro(4S-NH2)]N[Phe(4-COOH)][Trp(7-CN)][αMeS][Phe(4-CONH2)][Phe(4-COOH)][Sar][Trp(βS-Me,7-OMe)][X1][Nle]))	1	0.09	–	–
